Like-named read-outs stand apart in the source and are kept apart here.
What was measured:
[1] = Bioavailability of peptides after vaginal administration to sheep, relative to intravenous injection; conditions: female, in vivo, sheep
Experimental: (§1) First, a peptide that undergoes receptor-mediated transport across the vaginal epithelium was identified by studying the permeation of peptides of varying molecular weight in a sheep model. Peptides were delivered vaginally to sheep in 5 ml of aqueous or methocel solutions with typical peptide concentrations of 10-40 μg/ml. A group of 18 intact ewes were utilized for these experiments. For each study, sheep were randomly assigned to a treatment group. In GnRH studies where each animal received all possible treatment combinations, each animal was assigned to an initial treatment group at random and subsequently randomly to each of the remaining treatment groups. A minimum of 5 days (typically 10 or more days) was allowed between experiments on a given animal, to provide sufficient time for complete recovery of pituitary responsiveness to the highest doses of the GnRH agonist used A 16G 150 mm jugular catheter (Abbocath-T, Abbott Laboratories, Chicago, Ill.) was inserted and blood samples collected at 0, 30, 60, 90, 120, 180, 240, 360, 480 and 1440 min. after treatment. Luteinizing hormone (LH) levels were determined.
LHRH analog was placed in methyl cellulose solutions (“methocels”) of varying apparent viscosity. […] First, 200 μg of leuprolide acetate in 5 ml of aqueous solutions with melhocel weight concentrations varying between 0% and 3.0% were vaginally administered.
The enhanced bioavailability of LHRH also coincides with a longer-term release into the systemic circulation at the optimal methocel concentrations. […] To test this hypothesis, the efficacy of a second, physically cross-linked hydrogel that was believed would not enhance endocytosis, but whose apparent viscosity (in the range of hydrogel concentrations 0.0-5.5%) was similar to that of the methocels (in the range 0.0-3.0%) was examined.

serum cortisol = assay: Serum cortisol response to iv injection and vaginal administration of vasopressin; format: in vivo, sheep
Experimental: FIGS. 1a and 1b are graphs showing serum responses to iv injection and vacinal administration of vasopressin and leuprolide acetate. […] Vasopressin was injected intravenously ([…]) through a jugular catheter. The peptide was delivered vaginally in 5 ml of aqueous solution (200 g does). Standard errors are based on n=6. […] LHRH analog was injected intravenously ([…]) into through a jugular catheter. The peptide was delivered vaginally in 5 ml of aqueous solution (200 g dose). Standard errors are based on n=6.
as §1
To determine whether membrane damage might explain the results shown in FIG. 2, vasopressin was vaginally administered in methocel solutions of 1.5 and 1.75%.

luteinizing hormone (LH) [2] = assay: CIDR device control study: LH release after vaginal DES; format: in vivo, sheep
Experimental: Another study provided information about the role of the silastic CIDR device itself in the delivery process. The study was based on concern that the CIDR might be damaging the vaginal mucosa, allowing for GnRH transport by a non-selective mechanism. CIDR devices were inserted into six ewes. Five days later, all ewes were treated vaginally with DES. […] After the initial dosing, three ewes were treated with DES and three with gel alone every day for 18 days. At the end of the 18-day treatment period, all ewes were again treated with DES in gel. […] Consequently, by the time the second DES administration was given, the CIDR devices had been in place for approximately 24 days. The ewes therefore were no longer receiving adequate amounts of progesterone locally to maintain the vaginal transport system.

luteinizing hormone (LH) [3] = format: in vivo, sheep
Experimental: Ewes (n=12) were treated with progesterone using a vaginal CIDR device. In addition, six sheep received a 15 mm silastic implant of estradiol. Five days later, all sheep were treated vaginally with 200 μg of DES in gel. Blood samples were taken every 30 minutes for 2 hours following treatment and then every 60 minutes for an additional four hours.

luteinizing hormone (LH) [4] = assay: LH release after DES in gel in ewes given systemic depot progesterone and ear implants of synthetic progestogen; format: in vivo, sheep
Experimental: An attempt was made to treat ewes with progesterone using the systemic administration of a depot form of progesterone and ear implants of a synthetic progestogen. Pituitary release of LH was poor following the vaginal administration of DES in gel. When LH release in these animals was not observed, the gel from the same preparations used vaginally was injected subcutaneously. LH release was then obtained, confirming that the DES/gel preparations contained biologically active material. Given the consistent responses obtained in earlier experiments and those obtained more recently using the CIDR delivery system, it was concluded that the progesterone (generally) should be applied directly to the vagina in order to achieve sufficient local concentrations. Given that luteal phase sheep also respond well, systemic administration of greater amounts of progesterone than used here, in formulations that will maintain consistently high concentrations in the blood, should also work.

luteinizing hormone (LH) [5] = assay: Chronic daily vaginal dosing of DES in gel to suppress LH secretion, ovariectomized sheep without steroids; format: in vivo; conditions: no steroid
Experimental: The objective was to determine if chronic vaginal dosing with 200 μg of deslorelin (“DES”) in gel would be able to suppress secretion of LH. […] doses of DES will result in the down-regulation of the anterior pituitary gland in sheep. Ovariectomized sheep were used for the study, since they secrete high levels of LH in the-absence of ovarian steroids. The sheep were dosed daily with DES in 5 mL of gel, or gel only for 17 days. A single blood sample was collected by jugular venipuncture. Plasma was collected and assayed for LH.

luteinizing hormone (LH) [6] = assay: Daily vaginal DES in progesterone-primed ovariectomized ewes: basal LH and pituitary responsiveness; format: in vivo, sheep
Experimental: The objective of this study was to determine if daily vaginal administration of DES in progesterone-primed ewes would cause a reduction in basal LH secretion and loss of pituitary responsiveness of GnRH. Six ovariectomized ewes were used for the study. Vaginal CIDR devices containing progesterone were inserted. Twenty-four hours later, ewes were dosed daily with 200 μg of DES (GnRH agonist) in 5 mL of gel. Each day, blood samples were collected at 0 and 120 minutes post-treatment. These times were selected in order to evaluate changes in basal secretion of LH (time 0) and the peak LH response following GnRH administration (time 120).

NC(=O)CC[C@@H]1NC(=O)[C@H](Cc2ccccc2)NC(=O)[C@H](Cc2ccc(O)cc2)NC(=O)[C@@H](N)CSSC[C@@H](C(=O)N2CCC[C@H]2C(=O)N[C@@H](CCCN=C(N)N)C(=O)NCC(N)=O)NC(=O)[C@H](CC(N)=O)NC1=O [vasopressin]
bioavailability ([1]; 200 μg, vaginal administration in an aqueous buffer, leuprolide value based on biological response, read-out: bioavailability): < 0.1%
systemic cortisol levels (serum cortisol; intravenous injection, within the first hour following treatment): high systemic cortisol levels
changes in concentrations of cortisol (serum cortisol; vaginal administration in methocel solutions of 1.5 and 1.75%): no detectable changes
change in systemic cortisol levels (serum cortisol; vaginal administration, aqueous solution (FIG. 1a)): no detectable change

CC(C)C[C@H](NC(=O)[C@H](CCCCN)NC(=O)CNC(=O)[C@H](CC(C)C)NC(=O)[C@@H](NC(=O)[C@@H]1CSSC[C@H](N)C(=O)N[C@@H](CO)C(=O)N[C@@H](CC(N)=O)C(=O)N[C@@H](CC(C)C)C(=O)N[C@@H](CO)C(=O)N[C@@H]([C@@H](C)O)C(=O)N1)C(C)C)C(=O)N[C@@H](CO)C(=O)N[C@@H](CCC(N)=O)C(=O)N[C@@H](CCC(=O)O)C(=O)N[C@@H](CC(C)C)C(=O)N[C@@H](Cc1c[nH]cn1)C(=O)N[C@@H](CCCCN)C(=O)N[C@@H](CC(C)C)C(=O)N[C@@H](CCC(N)=O)C(=O)N[C@H](C(=O)N[C@@H](Cc1ccc(O)cc1)C(=O)N1CCC[C@H]1C(=O)N[C@@H](CCCNC(=N)N)C(=O)N[C@H](C(=O)N[C@@H](CC(N)=O)C(=O)N[C@H](C(=O)NCC(=O)N[C@@H](CO)C(=O)NCC(=O)N[C@H](C(=O)N1CCC[C@H]1C(N)=O)[C@@H](C)O)[C@@H](C)O)[C@@H](C)O)[C@@H](C)O [salmon calcitonin]
bioavailability [1]: < 0.1%

CCNC(=O)[C@@H]1CCCN1C(=O)[C@H](CCCN=C(N)N)NC(=O)[C@H](CC(C)C)NC(=O)[C@@H](Cc1c[nH]c2ccccc12)NC(=O)[C@H](Cc1ccc(O)cc1)NC(=O)[C@H](CO)NC(=O)[C@H](Cc1c[nH]c2ccccc12)NC(=O)[C@H](Cc1cnc[nH]1)NC(=O)[C@@H]1CCC(=O)N1 [DES, deslorelin]
ewes that displayed a robust release of LH (luteinizing hormone (LH) [2]; DES in gel at end of 18-day period, CIDR in place approximately 24 days): none
ewes with a robust release of LH (luteinizing hormone (LH) [2]; vaginal treatment five days after CIDR insertion): Five of the six
ewes that responded with a robust discharge of LH (luteinizing hormone (LH) [3]; 200 μg vaginally in gel, 5 days after progesterone CIDR with or without estradiol implant, n=12): All ewes
time of peak LH (luteinizing hormone (LH) [3]; ewes treated only with progesterone): 120 min
time of peak LH (luteinizing hormone (LH) [3]; ewes treated with progesterone and estradiol): 240 min
lag time between vaginal administration and transport of sufficient amounts into the blood to cause LH release (luteinizing hormone (LH) [3]; in vivo): 70 to 80 min
LH release (luteinizing hormone (LH) [4]; same gel preparation injected subcutaneously): obtained
pituitary release of LH (luteinizing hormone (LH) [4]; vaginal administration in gel, systemic depot progesterone and progestogen ear implants): poor
average LH concentrations, DES versus control (gel only) group (luteinizing hormone (LH) [5]; 200 μg daily vaginally in 5 mL gel for 17 days): no differences
LH secretion (luteinizing hormone (LH) [5]; between days 6 and 12 of daily vaginal dosing): slightly suppressed
ewes in which the change in LH between 0 and 120 minutes was greatest on the first day of administration (luteinizing hormone (LH) [6]; 200 μg daily vaginally in 5 mL gel, progesterone-primed ovariectomized ewes): 3 of 6
ewes that transport GnRH (luteinizing hormone (LH) [6]; after four days of exposure to progesterone): ~100%
ewes with significant transport (luteinizing hormone (LH) [6]; after only 24 hours of exposure to progesterone): Approximately 50%
basal LH (luteinizing hormone (LH) [6]; progesterone-primed ewes, daily treatment, time 0 sample (FIG. 8)): significant decreases
pituitary responsiveness with continued daily treatment (luteinizing hormone (LH) [6]; progesterone-primed ewes, first-treatment LH differential set to 100% (FIG. 7)): significantly reduced
time over which the change in LH secretion continued to increase after initiation of treatment (luteinizing hormone (LH) [6]; the two remaining animals of six): 5 to 7 days
pituitary responsiveness once the maximum response was achieved (luteinizing hormone (LH) [6]; the two remaining animals of six (Ewe 9)): rapidly declined

From USRE42072E1, “Compositions and methods for enhancing receptor-mediated cellular internalization” (The Penn State Research Foundation, priority 1996, dated 2011)
